Test results taken from ChEMBL document CHEMBL1201861, “Genomics of Drug Sensitity in Cancer screening data, Wellcome Trust Sanger Institute”.

Legend:
Assay in all cases: cells
CAL-72 = format: functional, cell-based, Homo sapiens; conditions: Homo sapiens, CAL-72;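 note: cell viability assay measuring inhibition of proliferation in the CAL-72 cell line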
Description: SANGER: Inhibition of human CAL-72 cell growth in a cell viability assay.

NCI-H2052 = format: functional, cell-based, Homo sapiens; conditions: Homo sapiens, NCI-H2052;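 note: growth inhibition of NCI-H2052 cells, read out with a cell viability assay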
Description: SANGER: Inhibition of human NCI-H2052 cell growth in a cell viability assay.

SBC-5 = format: functional, cell-based, Homo sapiens; conditions: Homo sapiens, SBC-5;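 note: cell viability assay read-out, IC50 is the concentration that inhibits growth of the cells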
Description: SANGER: Inhibition of human SBC-5 cell growth in a cell viability assay.

ONS-76 = format: functional, cell-based, Homo sapiens; conditions: Homo sapiens, ONS-76;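 note: growth inhibition of human ONS-76 cells, read out with a cell viability assay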
Description: SANGER: Inhibition of human ONS-76 cell growth in a cell viability assay.

NCI-H1651 = format: functional, cell-based, Homo sapiens; conditions: Homo sapiens, NCI-H1651;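 note: Read-out is a cell viability assay, with IC50 expressing inhibition of NCI-H1651 cell growth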
Description: SANGER: Inhibition of human NCI-H1651 cell growth in a cell viability assay.

NCI-H596 = format: functional, cell-based, Homo sapiens; conditions: Homo sapiens, NCI-H596;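 note: growth inhibition of NCI-H596 cells, read out with a cell viability assay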
Description: SANGER: Inhibition of human NCI-H596 cell growth in a cell viability assay.

NCI-H661 = format: functional, cell-based, Homo sapiens; conditions: Homo sapiens, NCI-H661;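 note: cell viability assay read-out, IC50 being the concentration that inhibits growth of the cells by half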
Description: SANGER: Inhibition of human NCI-H661 cell growth in a cell viability assay.

RPMI-8866 = format: functional, cell-based; conditions: Homo sapiens
Description: SANGER: Inhibition of human RPMI-8866 cell growth in a cell viability assay.

TK-10 = format: functional, cell-based, Homo sapiens; conditions: Homo sapiens, TK-10;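 note: growth inhibition of TK-10 cells, read out in a cell viability assay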
Description: SANGER: Inhibition of human TK10 cell growth in a cell viability assay.

HuCCT-1 = format: functional, cell-based, Homo sapiens, HuCCT1; conditions: Homo sapiens, HuCCT-1;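 note: growth inhibition of HuCCT-1 cells, read out by a cell viability assay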
Description: SANGER: Inhibition of human HuCCT1 cell growth in a cell viability assay.

HCC1395 = format: functional, cell-based, Homo sapiens; conditions: Homo sapiens, HCC1395;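 note: growth inhibition of HCC1395 cells, read out by a cell viability assay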
Description: SANGER: Inhibition of human HCC1395 cell growth in a cell viability assay.

5637 = format: functional, cell-based, Homo sapiens; conditions: Homo sapiens
Description: SANGER: Inhibition of human 5637 cell growth in a cell viability assay.

HCC1187 = format: functional, cell-based, Homo sapiens; conditions: Homo sapiens, HCC1187;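 note: growth inhibition of HCC1187 cells, read out with a cell viability assay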
Description: SANGER: Inhibition of human HCC1187 cell growth in a cell viability assay.

MPP-89 = format: functional, cell-based, Homo sapiens; conditions: Homo sapiens, MPP-89;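 note: growth inhibition of human MPP-89 cells, read out with a cell viability assay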
Description: SANGER: Inhibition of human MPP-89 cell growth in a cell viability assay.

KG-1 = format: functional, cell-based; conditions: Homo sapiens;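 note: growth inhibition of KG-1 cells, read out by a cell viability assay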
Description: SANGER: Inhibition of human KG-1 cell growth in a cell viability assay.

CTB-1 = format: functional, cell-based; conditions: Homo sapiens
Description: SANGER: Inhibition of human CTB-1 cell growth in a cell viability assay.

P12-Ichikawa = format: functional, cell-based; conditions: Homo sapiens
MDA-MB-157 = format: functional, cell-based, Homo sapiens; conditions: Homo sapiens, MDA-MB-157
Description: SANGER: Inhibition of human MDA-MB-157 cell growth in a cell viability assay.

8-MG-BA = format: functional, cell-based, Homo sapiens; conditions: Homo sapiens, 8-MG-BA;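 note: growth inhibition of 8-MG-BA cells, read out with a cell viability assay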
Description: SANGER: Inhibition of human 8-MG-BA cell growth in a cell viability assay.

SK-MEL-24 = format: functional, cell-based; conditions: Homo sapiens;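 note: growth inhibition read out by a cell viability assay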
Description: SANGER: Inhibition of human SK-MEL-24 cell growth in a cell viability assay.

HuTu80 = format: functional, cell-based, Homo sapiens, HUTU-80; conditions: Homo sapiens, HuTu80;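 note: growth inhibition of HuTu80 human cells, determined with a cell viability readout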
Description: SANGER: Inhibition of human HUTU-80 cell growth in a cell viability assay.

T-24 = format: functional, cell-based, Homo sapiens; conditions: Homo sapiens, T-24;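 note: growth inhibition of T-24 cells, read out with a cell viability assay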
Description: SANGER: Inhibition of human T-24 cell growth in a cell viability assay.

KU812 cell line = format: functional, cell-based; conditions: Homo sapiens;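 note: growth inhibition of KU812 cells, read out with a cell viability assay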
Description: SANGER: Inhibition of human KU812 cell growth in a cell viability assay.

OAW-42 = format: functional, cell-based, Homo sapiens; conditions: Homo sapiens, OAW-42;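 note: growth inhibition of OAW-42 cells, read out with a cell viability assay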
Description: SANGER: Inhibition of human OAW-42 cell growth in a cell viability assay.

HL-60 = format: functional, cell-based; conditions: Homo sapiens;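 note: growth inhibition of human HL-60 cells, read out with a cell viability assay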
Description: SANGER: Inhibition of human HL-60 cell growth in a cell viability assay.

IGROV-1 = format: functional, cell-based, Homo sapiens; conditions: Homo sapiens, IGROV-1;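 note: reduction of IGROV-1 cell growth, read out with a viability assay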
Description: SANGER: Inhibition of human IGROV-1 cell growth in a cell viability assay.

HT-144 = format: functional, cell-based, Homo sapiens; conditions: Homo sapiens, HT-144
Description: SANGER: Inhibition of human HT-144 cell growth in a cell viability assay.

SKG-IIIa = format: functional, cell-based, Homo sapiens; conditions: Homo sapiens, SKG-IIIa;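 note: cell growth inhibition, read out with a cell viability assay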
Description: SANGER: Inhibition of human SKG-IIIa cell growth in a cell viability assay.

BXPC-3 = format: functional, cell-based, Homo sapiens; conditions: Homo sapiens, BXPC-3;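 note: growth inhibition of human BxPC-3 cells, read out by a cell viability assay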
Description: SANGER: Inhibition of human BxPC-3 cell growth in a cell viability assay.

NCI-H1755 = format: functional, cell-based, Homo sapiens; conditions: Homo sapiens, NCI-H1755;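 note: cell viability readout used to measure growth inhibition of NCI-H1755 cells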
Description: SANGER: Inhibition of human NCI-H1755 cell growth in a cell viability assay.

IA-LM = format: functional, cell-based, Homo sapiens; conditions: Homo sapiens, IA-LM;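 note: cell viability assay measuring growth inhibition of human IA-LM cells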
Description: SANGER: Inhibition of human IA-LM cell growth in a cell viability assay.

NCI-H2347 = format: functional, cell-based, Homo sapiens; conditions: Homo sapiens, NCI-H2347;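 note: growth inhibition of the cell line, read out with a cell viability assay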
Description: SANGER: Inhibition of human NCI-H2347 cell growth in a cell viability assay.

MHH-PREB-1 = format: functional, cell-based; conditions: Homo sapiens;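 note: cell viability assay measuring inhibition of proliferation of human MHH-PREB-1 cells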
Description: SANGER: Inhibition of human MHH-PREB-1 cell growth in a cell viability assay.

BFTC-905 = format: functional, cell-based, Homo sapiens; conditions: Homo sapiens, BFTC-905
Description: SANGER: Inhibition of human BFTC-905 cell growth in a cell viability assay.

SNU-387 = format: functional, cell-based, Homo sapiens; conditions: Homo sapiens, SNU-387
Description: SANGER: Inhibition of human SNU-387 cell growth in a cell viability assay.

A 172 = format: functional, cell-based, Homo sapiens; conditions: Homo sapiens, A 172;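 note: growth inhibition of A172 cells, measured with a cell viability readout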
Description: SANGER: Inhibition of human A172 cell growth in a cell viability assay.

TE-10 = format: functional, cell-based, Homo sapiens; conditions: Homo sapiens, TE-10;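 note: growth inhibition of TE-10 cells, measured by a cell viability assay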
Description: SANGER: Inhibition of human TE-10 cell growth in a cell viability assay.

CP50-MEL-B = format: functional, cell-based, Homo sapiens; conditions: Homo sapiens, CP50-MEL-B;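 note: growth inhibition of the human cell line, measured with a cell viability read-out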
Description: SANGER: Inhibition of human CP50-MEL-B cell growth in a cell viability assay.

JEG-3 = format: functional, cell-based, Homo sapiens; conditions: Homo sapiens, JEG-3;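 note: growth inhibition of human JEG-3 cells, read out with a cell viability assay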
Description: SANGER: Inhibition of human JEG-3 cell growth in a cell viability assay.

HCE-4 = format: functional, cell-based, Homo sapiens; conditions: Homo sapiens, HCE-4;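 note: cell viability assay measuring inhibition of growth in the human HCE-4 cell line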
Description: SANGER: Inhibition of human HCE-4 cell growth in a cell viability assay.

GAK = format: functional, cell-based, Homo sapiens; conditions: Homo sapiens, GAK;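 note: cell growth inhibition read out by a cell viability assay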
Description: SANGER: Inhibition of human GAK cell growth in a cell viability assay.

K5 = format: functional, cell-based, Homo sapiens; conditions: Homo sapiens, K5
Description: SANGER: Inhibition of human K5 cell growth in a cell viability assay.

SCC-25 = format: functional, cell-based, Homo sapiens; conditions: Homo sapiens, SCC-25;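 note: growth inhibition of SCC-25 cells, measured with a cell viability assay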
Description: SANGER: Inhibition of human SCC-25 cell growth in a cell viability assay.

BB30-HNC = format: functional, cell-based, Homo sapiens; conditions: Homo sapiens, BB30-HNC;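 note: growth inhibition of the cultured cell line, read out by a cell viability assay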
Description: SANGER: Inhibition of human BB30-HNC cell growth in a cell viability assay.

NCI-H720 = format: functional, cell-based; conditions: Homo sapiens;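 note: growth inhibition of human NCI-H720 cells determined by a cell viability assay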
Description: SANGER: Inhibition of human NCI-H720 cell growth in a cell viability assay.

GI-1 = format: functional, cell-based, Homo sapiens; conditions: Homo sapiens, GI-1;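 note: growth inhibition of human GI-1 cells, measured with a cell viability readout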
Description: SANGER: Inhibition of human GI-1 cell growth in a cell viability assay.

HOS = format: functional, cell-based, Homo sapiens; conditions: Homo sapiens, HOS;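 note: growth inhibition of human HOS cells, read out with a cell viability assay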
Description: SANGER: Inhibition of human HOS cell growth in a cell viability assay.

NCI-H23 = format: functional, cell-based, Homo sapiens; conditions: Homo sapiens, NCI-H23
Description: SANGER: Inhibition of human NCI-H23 cell growth in a cell viability assay.

NCI-H747 = format: functional, cell-based; conditions: Homo sapiens;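 note: growth inhibition of human NCI-H747 cells, read out by a cell viability assay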
Description: SANGER: Inhibition of human NCI-H747 cell growth in a cell viability assay.

D-263MG = format: functional, cell-based, Homo sapiens; conditions: Homo sapiens, D-263MG
Description: SANGER: Inhibition of human D-263MG cell growth in a cell viability assay.

CHL-1 = format: functional, cell-based, Homo sapiens; conditions: Homo sapiens, CHL-1;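 note: cell growth inhibition, read out with a cell viability assay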
Description: SANGER: Inhibition of human CHL-1 cell growth in a cell viability assay.

Compound: Nc1ccn([C@@H]2O[C@H](CO)[C@@H](O)[C@@H]2O)c(=O)n1 [CYTARABINE]
- IC50 (CAL-72): > 2 µM
- IC50 (NCI-H2052): > 2 µM
- IC50 (SBC-5): > 2 µM
- IC50 (ONS-76): 0.39 µM
- IC50 (NCI-H1651): > 2 µM
- IC50 (NCI-H596): > 2 µM
- IC50 (NCI-H661): 1.73 µM
- IC50 (RPMI-8866): 0.74 µM
- IC50 (TK-10): 1.73 µM
- IC50 (HuCCT-1): > 2 µM
- IC50 (HCC1395): > 2 µM
- IC50 5637: 0.501 µM
- IC50 (HCC1187): > 2 µM
- IC50 (MPP-89): 1.31 µM
- IC50 (KG-1): 1.16 µM
- IC50 (CTB-1): 0.0344 µM
- IC50 (P12-Ichikawa): 0.00554 µM
- IC50 (MDA-MB-157): 1.39 µM
- IC50 (8-MG-BA): 0.341 µM
- IC50 (SK-MEL-24): > 2 µM
- IC50 (HuTu80): 0.561 µM
- IC50 (T-24): 0.0786 µM
- IC50 (KU812 cell line): > 2 µM
- IC50 (OAW-42): 1.25 µM
- IC50 (HL-60): > 2 µM
- IC50 (IGROV-1): 1.79 µM
- IC50 (HT-144): 1.23 µM
- IC50 (SKG-IIIa): 0.915 µM
- IC50 (BXPC-3): > 2 µM
- IC50 (NCI-H1755): > 2 µM
- IC50 (IA-LM): > 2 µM
- IC50 (NCI-H2347): > 2 µM
- IC50 (MHH-PREB-1): 0.533 µM
- IC50 (BFTC-905): 0.108 µM
- IC50 (SNU-387): 0.289 µM
- IC50 (A 172): > 2 µM
- IC50 (TE-10): > 2 µM
- IC50 (CP50-MEL-B): > 2 µM
- IC50 (JEG-3): 0.431 µM
- IC50 (HCE-4): 0.277 µM
- IC50 (GAK): > 2 µM
- IC50 (K5): 0.0432 µM
- IC50 (SCC-25): > 2 µM
- IC50 (BB30-HNC): > 2 µM
- IC50 (NCI-H720): > 2 µM
- IC50 (GI-1): 0.339 µM
- IC50 (HOS): 0.518 µM
- IC50 (NCI-H23): 1.2 µM
- IC50 (NCI-H747): > 2 µM
- IC50 (D-263MG): 1.17 µM
- IC50 (CHL-1): 1.04 µM

Compound: COC(=O)CNC(=O)C(=O)OC
- IC50 (CAL-72): 488 µM
- IC50 (NCI-H2052): 2880 µM
- IC50 (SBC-5): 1390 µM
- IC50 (ONS-76): 241 µM
- IC50 (NCI-H1651): 1360 µM
- IC50 (NCI-H596): > 4000 µM
- IC50 (NCI-H661): 2280 µM
- IC50 (RPMI-8866): > 4000 µM
- IC50 (TK-10): 355 µM
- IC50 (HuCCT-1): 211 µM
- IC50 (HCC1395): 1540 µM
- IC50 5637: 857 µM
- IC50 (HCC1187): > 4000 µM
- IC50 (MPP-89): 1280 µM
- IC50 (KG-1): 81.6 µM
- IC50 (CTB-1): 86 µM
- IC50 (P12-Ichikawa): 62 µM
- IC50 (MDA-MB-157): 566 µM
- IC50 (8-MG-BA): 126 µM
- IC50 (SK-MEL-24): > 4000 µM
- IC50 (HuTu80): 1260 µM
- IC50 (T-24): > 4000 µM
- IC50 (KU812 cell line): 28.5 µM
- IC50 (OAW-42): 425 µM
- IC50 (HL-60): 157 µM
- IC50 (IGROV-1): 1390 µM
- IC50 (HT-144): 177 µM
- IC50 (SKG-IIIa): 308 µM
- IC50 (BXPC-3): 639 µM
- IC50 (NCI-H1755): 2740 µM
- IC50 (IA-LM): 153 µM
- IC50 (NCI-H2347): 121 µM
- IC50 (MHH-PREB-1): 137 µM
- IC50 (BFTC-905): 580 µM
- IC50 (SNU-387): 220 µM
- IC50 (A 172): 566 µM
- IC50 (TE-10): 629 µM
- IC50 (CP50-MEL-B): > 4000 µM
- IC50 (JEG-3): 908 µM
- IC50 (HCE-4): 546 µM
- IC50 (GAK): 774 µM
- IC50 (K5): 160 µM
- IC50 (SCC-25): 1230 µM
- IC50 (BB30-HNC): 148 µM
- IC50 (NCI-H720): > 4000 µM
- IC50 (GI-1): 146 µM
- IC50 (HOS): 636 µM
- IC50 (NCI-H23): 2950 µM
- IC50 (NCI-H747): > 4000 µM
- IC50 (D-263MG): 410 µM
- IC50 (CHL-1): 917 µM
